In paper PMC11183015, “In vivo stable ^211At-labeled prostate-specific membrane antigen-targeted tracer using a neopentyl glycol structure” (EJNMMI Radiopharmacy and Chemistry, 2024):

Key:
PSMA = PSMA (Homo sapiens, UniProt Q04609); assay: Competitive inhibition of [125I]DCIT binding to LNCaP cells; design: endogenous in cells; host or cells: LNCaP (human prostate cancer cell line, RIKEN BRC); settings: competitor [125I]DCIT, 37 °C, 1 h
Protocol: The human prostate cancer cell line LNCaP was provided by RIKEN BioResource Center (BRC) through the National BioResource Project of MEXT/AMED, Japan. LNCaP cells were cultured according to protocols prescribed by RIKEN BRC. LNCaP cells were seeded in 24-well plates (~ 1.5 × 10^5 cells/500 µL/well) coated with 0.01% poly-L-lysine (Sigma-Aldrich, Tokyo). After washing twice with assay medium (RPMI 1640 supplemented with 0.5% BSA), 250 µL of assay medium was added to each well. Each PSMA derivative and [^125I]DCIT dissolved in assay medium (250 µL) were added to the well, and the plates were then incubated at 37 °C for 1 h. After removing the assay medium, the cells were washed twice with assay medium (250 µL × 2). All cells were lysed with 1 M NaOH (500 µL), and the solution was collected. The cells were washed twice with PBS (250 µL × 2), and the solution was mixed with the previous solution. The radioactivity in the solution was measured using an auto-well gamma counter. The IC50 value was calculated by fitting with nonlinear regression using GraphPad Prism 8.4.3 (GraphPad Software, Inc., San Diego).

[1] = Biodistribution of radioactivity in normal mice; format: in vivo, mouse; settings: normal ddY mice, i.v.
Protocol: Six-week-old male ddY mice were injected via the tail vein with each radiolabeled PSMA derivative. Animals were sacrificed and the organs were dissected at 10 min, 1 h, 3 h, and 6 h after injection. Metabolic cages were used for housing normal mice. The tissues of interest were excised and weighed, and the radioactivity counts in each tissue were determined using an auto-well gamma counter. Each value was expressed as the mean percent injected dose/g tissue ± SD for a group of 3–5 animals, except those for the stomach, intestine, and thyroid.

LNCaP cell xenografts = assay: Biodistribution of radioactivity in tumor-bearing mice; format: in vivo, mouse; settings: LNCaP tumor-bearing BALB/c-nu/nu mice
Protocol: Animal studies were conducted in accordance with the institutional guidelines approved by the Chiba University Animal Care Committee (Permit No. 4–183). Five-week-old male ddY mice and BALB/c-nu/nu mice were purchased from Japan SLC Inc. (Hamamatsu, Japan). LNCaP cells (5.0 × 10^6 cells) were suspended in 100 μL of PBS and Matrigel (BD Biosciences, Franklin Lakes, NJ, USA) in a 1:1 ratio. Tumor xenograft models were prepared via subcutaneous injection of this LNCaP cell suspension into BALB/c nude mice.
Biodistribution studies were conducted using male BALB/c-nu/nu mice bearing LNCaP cell xenografts at 1 and 3 h postinjection of [^211At]At-NpG-D-PSMA (100 µL, 37 kBq) and 1 and 6 h postinjection of ^125I-labeled PSMA derivative (100 µL, 11.1 kBq). In the blocking study, [^125I]I-NpG-D-PSMA was coinjected with 2-PMPA (50 mg/kg weight) into tumor-bearing mice via the tail vein. At 1 h postinjection, the mice were sacrificed. The tissues of interest were excised and weighed, and the radioactivity counts in each tissue were determined using an auto-well gamma counter. Each value was expressed as the mean percent injected dose/g tissue ± SD for a group of 3–5 animals, except those for the stomach, intestine, and thyroid.

Chain of PSMA (Q04609 whole entry): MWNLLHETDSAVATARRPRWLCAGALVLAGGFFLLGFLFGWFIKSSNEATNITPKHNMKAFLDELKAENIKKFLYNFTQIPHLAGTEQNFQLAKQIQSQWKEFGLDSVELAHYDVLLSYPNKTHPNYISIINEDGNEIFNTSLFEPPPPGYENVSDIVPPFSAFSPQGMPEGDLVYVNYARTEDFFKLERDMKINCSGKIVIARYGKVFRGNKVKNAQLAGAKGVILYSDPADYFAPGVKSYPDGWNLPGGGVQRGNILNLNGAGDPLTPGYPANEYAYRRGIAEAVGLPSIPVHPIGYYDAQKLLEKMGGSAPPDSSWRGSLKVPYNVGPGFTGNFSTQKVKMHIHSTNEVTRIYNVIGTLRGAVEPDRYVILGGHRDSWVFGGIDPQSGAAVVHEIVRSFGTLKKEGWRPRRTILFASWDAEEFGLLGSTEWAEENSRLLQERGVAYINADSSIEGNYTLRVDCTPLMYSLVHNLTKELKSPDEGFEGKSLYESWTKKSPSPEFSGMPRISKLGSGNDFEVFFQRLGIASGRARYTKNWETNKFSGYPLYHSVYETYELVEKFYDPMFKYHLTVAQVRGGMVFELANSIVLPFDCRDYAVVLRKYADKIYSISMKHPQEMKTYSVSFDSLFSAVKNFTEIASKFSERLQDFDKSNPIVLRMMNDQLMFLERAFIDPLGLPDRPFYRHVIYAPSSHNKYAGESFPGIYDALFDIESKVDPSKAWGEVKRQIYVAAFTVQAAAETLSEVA

In the case of `O=C([O-])CN1CCN(CC(=O)[O-])CCN(CC(=O)NC[C@H]2CC[C@H](C(=O)N[C@@H](Cc3ccc4ccccc4c3)C(=O)NCCCC[C@H](NC(=O)N[C@@H](CCC(=O)O)C(=O)O)C(=O)O)CC2)CCN(CC(=O)[O-])CC1.[Ga+3]` [Ga-PSMA-617, reference compound], the IC50 (PSMA) is reported as 7.56 nM.
`O=C(O)CCC(NC(=O)NC(CCCCNC(=O)C(Cc1ccc2ccccc2c1)NC(=O)C(CCC(=O)O)NC(=O)C(CCC(=O)O)NC(=O)COCC(CO)(CO)CI)C(=O)O)C(=O)O` [I-NpG-D-PSMA] gave an IC50 (PSMA) of 6.06 nM.
`O=C(O)CCC(NC(=O)NC(CCCCNC(=O)C(Cc1ccc2ccccc2c1)NC(=O)C(CCC(=O)O)NC(=O)C(CCC(=O)O)NC(=O)COCC(CO)(CO)CI)C(=O)O)C(=O)O` [I-NpG-L-PSMA] showed an IC50 (PSMA) of 4.04 nM.
With `O=C([O-])CN1CCN(CC(=O)[O-])CCN(CC(=O)NC[C@H]2CC[C@H](C(=O)N[C@@H](Cc3ccc4ccccc4c3)C(=O)NCCCC[C@H](NC(=O)N[C@@H](CCC(=O)O)C(=O)O)C(=O)O)CC2)CCN(CC(=O)[O-])CC1.[67Ga+3]` [[^67Ga]Ga-PSMA-617, reference compound] the “Radioactivity in Blood” value ([1]; 10 min) was 3.84 ± 0.55 %ID/g, the “Radioactivity in Bone” value ([1]; 10 min) was 1.54 ± 0.19 %ID/g and the “Radioactivity in Heart” value ([1]; 10 min) was 1.51 ± 0.13 %ID/g. For the same compound, the “Radioactivity in Intestine” value ([1]; 10 min) was 1.58 ± 0.17 %ID, the “Radioactivity in Kidney” value ([1]; 10 min) was 82.9 ± 12.2 %ID/g and the “Radioactivity in Liver” value ([1]; 10 min) was 0.98 ± 0.13 %ID/g. For the same compound, the “Radioactivity in Lung” value ([1]; 10 min) was 3.52 ± 0.29 %ID/g, the “Radioactivity in Muscle” value ([1]; 10 min) was 1.34 ± 0.18 %ID/g and the “Radioactivity in Neck” value ([1]; 10 min) was 0.03 ± 0.01 %ID. For the same compound, the “Radioactivity in Pancreas” value ([1]; 10 min) was 1.20 ± 0.22 %ID/g, the “Radioactivity in Spleen” value ([1]; 10 min) was 1.76 ± 0.68 %ID/g and the “Radioactivity in Stomach” value ([1]; 10 min) was 0.32 ± 0.03 %ID. For the same compound, the “Radioactivity in Blood” value ([1]; 1 h) was 0.26 ±0.15 %ID/g, the “Radioactivity in Bone” value ([1]; 1 h) was 0.20 ± 0.09 %ID/g and the “Radioactivity in Intestine” value ([1]; 1 h) was 0.83 ± 0.25 %ID. The “Radioactivity in Kidney” value ([1]; 1 h) was 11.1 ± 3.22 %ID/g, the “Radioactivity in Liver” value ([1]; 1 h) was 0.15 ± 0.03 %ID/g and the “Radioactivity in Lung” value ([1]; 1 h) was 0.26 ± 0.12 %ID/g. For the same compound, the “Radioactivity in Muscle” value ([1]; 1 h) was 0.15 ± 0.07 %ID/g, the “Radioactivity in Neck” value ([1]; 1 h) was 0.01 ± 0.01 %ID and the “Radioactivity in Pancreas” value ([1]; 1 h) was 0.11 ± 0.04 %ID/g. The “Radioactivity in Spleen” value ([1]; 1 h) was 0.12 ± 0.08 %ID/g, the “Radioactivity in Stomach” value ([1]; 1 h) was 0.57 ± 0.31 %ID and the “Radioactivity in Heart” value ([1]; 3 h) was 0.02 ± 0.03 %ID/g. For the same compound, the “Radioactivity in Intestine” value ([1]; 3 h) was 0.21 ± 0.09 %ID, the “Radioactivity in Kidney” value ([1]; 3 h) was 1.12 ± 0.34 %ID/g and the “Radioactivity in Liver” value ([1]; 3 h) was 0.06 ± 0.00 %ID/g. The “Radioactivity in Lung” value ([1]; 3 h) was 0.03 ± 0.02 %ID/g, the “Radioactivity in Muscle” value ([1]; 3 h) was 0.02 ± 0.02 %ID/g and the “Radioactivity in Neck” value ([1]; 3 h) was 0.00 ± 0.00 %ID. For the same compound, the “Radioactivity in Stomach” value ([1]; 3 h) was 0.03 ± 0.02 %ID, the “Radioactivity in Intestine” value ([1]; 6 h) was 0.34 ± 0.17 %ID and the “Radioactivity in Kidney” value ([1]; 6 h) was 1.06 ± 0.42 %ID/g. The “Radioactivity in Liver” value ([1]; 6 h) was 0.05 ±0.01 %ID/g, the “Radioactivity in Lung” value ([1]; 6 h) was 0.02 ± 0.02 %ID/g and the “Radioactivity in Muscle” value ([1]; 6 h) was 0.02 ± 0.02 %ID/g. For the same compound, the “Radioactivity in Neck” value ([1]; 6 h) was 0.00 ± 0.00 %ID, the “Radioactivity in Stomach” value ([1]; 6 h) was 0.05 ± 0.03 %ID and the “Radioactivity in Feces” value ([1]; 6 h, metabolic cages) was 0.19 ± 0.12 %ID. The “Radioactivity in Urine” value ([1]; 6 h, metabolic cages) was 66.7 ± 15.8 %ID.
In the case of `O=C(O)CCC(NC(=O)NC(CCCCNC(=O)C(Cc1ccc2ccccc2c1)NC(=O)C(CCC(=O)O)NC(=O)C(CCC(=O)O)NC(=O)COCC(CO)(CO)C[211At])C(=O)O)C(=O)O` [[^211At]At-NpG-D-PSMA], the “Radioactivity in Blood” value (LNCaP cell xenografts; 1 h) is reported as 0.41 ± 0.10 %ID/g, the “Radioactivity in Bone” value (LNCaP cell xenografts; 1 h) is reported as 0.40 ± 0.22 %ID/g and the “Radioactivity in Heart” value (LNCaP cell xenografts; 1 h) is reported as 0.65 ± 0.22 %ID/g. For the same compound, the “Radioactivity in Intestine” value (LNCaP cell xenografts; 1 h) was 1.94 ± 0.22 %ID, the “Radioactivity in Kidney” value (LNCaP cell xenografts; 1 h) was 181 ± 13.5 %ID/g and the “Radioactivity in Liver” value (LNCaP cell xenografts; 1 h) was 0.38 ± 0.08 %ID/g. The “Radioactivity in Lung” value (LNCaP cell xenografts; 1 h) was 1.84 ± 0.22 %ID/g, the “Radioactivity in Muscle” value (LNCaP cell xenografts; 1 h) was 0.30 ± 0.12 %ID/g and the “Radioactivity in Neck” value (LNCaP cell xenografts; 1 h) was 0.04 ± 0.03 %ID. For the same compound, the “Radioactivity in Pancreas” value (LNCaP cell xenografts; 1 h) was 0.95 ± 0.48 %ID/g, the “Radioactivity in Spleen” value (LNCaP cell xenografts; 1 h) was 11.8 ± 1.26 %ID/g and the “Radioactivity in Stomach” value (LNCaP cell xenografts; 1 h) was 0.37 ± 0.15 %ID. For the same compound, the “Radioactivity in Tumor” value (LNCaP cell xenografts; 1 h) was 13.4 ± 3.17 %ID/g, the “Radioactivity in Blood” value (LNCaP cell xenografts; 3 h) was 0.09 ± 0.02 %ID/g and the “Radioactivity in Bone” value (LNCaP cell xenografts; 3 h) was 0.29 ± 0.18 %ID/g. The “Radioactivity in Heart” value (LNCaP cell xenografts; 3 h) was 0.23 ± 0.08 %ID/g, the “Radioactivity in Intestine” value (LNCaP cell xenografts; 3 h) was 1.74 ± 0.39 %ID and the “Radioactivity in Kidney” value (LNCaP cell xenografts; 3 h) was 132 ± 37.8 %ID/g. The “Radioactivity in Liver” value (LNCaP cell xenografts; 3 h) was 0.11 ± 0.04 %ID/g, the “Radioactivity in Lung” value (LNCaP cell xenografts; 3 h) was 0.55 ± 0.06 %ID/g and the “Radioactivity in Muscle” value (LNCaP cell xenografts; 3 h) was 0.13 ± 0.09 %ID/g. The “Radioactivity in Neck” value (LNCaP cell xenografts; 3 h) was 0.05 ± 0.04 %ID, the “Radioactivity in Pancreas” value (LNCaP cell xenografts; 3 h) was 0.27 ± 0.05 %ID/g and the “Radioactivity in Spleen” value (LNCaP cell xenografts; 3 h) was 4.67 ± 3.27 %ID/g. The “Radioactivity in Stomach” value (LNCaP cell xenografts; 3 h) was 0.55 ± 0.33 %ID and the “Radioactivity in Tumor” value (LNCaP cell xenografts; 3 h) was 16.9 ± 8.45 %ID/g.
